The text below walks through data of patent US20060099682A1, “Human vanilloid receptors and their uses” (Glaxo Group Limited, priority 1998, published 2006).

What all share (format): cell-based
In test [1] the target is T1, rat VR1 (Rattus norvegicus, UniProt O35433).
T1 construct: expressed in transfected cells
Description: FLIPR calcium assay (fluo3-AM) with HEK293 cells stably expressing rat VR1.
Description: Intracellular calcium is monitored with the calcium sensitive dye, fluo3-AM. HEK293 cells stably expressing rat VR1 were plated into a 96 well, poly-l-lysine treated FLIPR plate at 3×10^4 cells per well. On the following day, the plate was processed for FLIPR. FBP buffer was prepared (15 μM Probenecid (calcium ATPase pump blocker) in 1× FLIPR buffer (145 mM NaCl, 5 mM KCl, 1 mM MgCl2, 2 mM CaCl2, 10 mM glucose, 20 mM Hepes). FBP buffer pH was then adjusted to 7.4 with NaOH. 400 μl DMSO was added to a vial of fluo3-AM (Cambridge Bioscience, F-1241). The fluo3-AM solution was incubated at 37° C. for 10 min and vortexed. LOAD was prepared by adding 20 μl of fluo3-AM solution and 20 μl 20% pleuronic F-127 in DMSO (Cambridge Bioscience, P-3000) into 10 ml FBP. The 96 well plate containing cells was flicked off to remove cell medium. 100 μl LOAD was added per well. Cells were then incubated at 37° C. for 60 minutes. Capsaicin (a rVR1 agonist) and capsazepine (CPZ, a rVR1 antagonist) were prepared at 10× the desired final assay concentrations in FBP. The plate was flicked to remove LOAD from cells, and 180 μl FBP was added per well. […] Cells were monitored for 70 seconds after agonist addition. The FLIPR traces (fluorescence change (counts) versus time (seconds)) were produced for each well. […] The plate was incubated for 15 minutes at room temperature prior reading in the FLIPR.

Test [2] concerns the target T2, hVR1 (Homo sapiens, UniProt Q8NER1, M315I/T469I). Description: Whole-cell patch clamp electrophysiology of human VR-1 channels transiently expressed in HEK293T cells. Also noted: pClN5-new (B) with the full length hVR1 gene cloned via NotI and EcoRI restriction sites; expressed in transfected cells; host or cells: HEK293T. The procedure: The activation of human VR-1 channels transiently expressed in HEK293T cells by capsaicin was investigated. Cells grown on poly-L-lysine-coated glass coverslips were placed in a recording chamber (0.5 ml) and superfused with extracellular solution (2 ml min^−1). The extracellular solution contained: NaCl (140 mM), KCl (5 mM), MgCl2 (2 mM), CaCl2 (2 mM), 4-(2-hydroxethyl)-1-piperazineethanesulphonic acid (HEPES, 10 mM) and glucose (10 mM). The pH was adjusted to 7.4 with NaOH and osmolarity ranged from 310-320 mOsm I^−1. Patch pipettes (borosilicate glass) were pulled using a Sutter P-97 electrode puller. The pipettes were filled with an internal solution consisting of: CsCl (140 mM), ethylene glycol-bis(β-aminoethyl ether) N,N,N′,N′-tetra acetic acid Cs salt (Cs-EGTA, 5 mM) and HEPES (10 mM). The pH was adjusted to 7.25 using CsOH and the osmolarity ranged from 275-290 mOsm. When filled with this internal solution, patch electrodes had resistances of 2-5 MΩ. Currents were recorded using standard whole-cell voltage clamp recording techniques (31) at room temperature (21-23° C.) using an Axopatch 200A amplifier and signals were sampled at 2 or 0.1 kHz. The majority of series resistance errors (80-85%) were minimized with compensation circuitry. Membrane potentials were not corrected for junction potentials (<4 mV). Voltage pulses and data collection were performed on-line using pClamp8 software (Axon Instruments) interfaced with amplifiers. Membrane potentials were maintained at −60 mV between protocols.
Capsaicin or capsazepine (CPZ) were applied, using a ‘fast-flow sytem’, directly onto the recording cell (<1 s to equilibrate). […]

Test [3] has as its target T2, hVR1. In words: Calcium imaging (fura2-AM) with HEK293 cells expressing hVR1. Set-up: pClN5-new (B) with the full length hVR1 gene cloned via NotI and EcoRI restriction sites; expressed in transfected cells; host or cells: HEK293. The conditions noted are these: 37° C.
Description: HEK293 cells expressing hVR1 transiently or stably, were plated onto poly-l-lysine coated cover slips at 1×10^5 cells per well. They were analysed on the following day by calcium imaging (QuantiCell 700, Applied Imaging). On the day of experiment, WASH buffer was prepared by adding CaCl2 to extracellular medium (ECM) to a final concentration of 2 mM, (ECM contains 125 mM NaCl, 5 mM KCl, 2 mM MgCl2, 0.5 mM NaH2PO4, 5 mM NaHCO3, 10 mM Hepes, 10 mM glucose, 0.1% BSA, pH7.4). The calcium sensitive dye solution was prepared by adding 50 μl 5% pluronic F-127 in DMSO (Molecular Probes) to a vial of fura2-AM (Molecular Probes). After mixing, 20 μl of the fura2-AM solution was added to 10 ml WASH. 1.5 ml was then added to cells, which were then incubated at 37° C. for 30 minutes. The plate was washed three times with WASH. 1 ml WASH was added and stored in dark. Agonists and antagonists were prepared in WASH at 5× their required assay concentrations. The reagents and assay temperature was kept at 37° C. For the transiently transfected cells, the YFP reporter DNA fluorescence (490 nm excitation) was used to identify the transfected cells. Cells were initially imaged in 400 μl WASH (or 300 μl WASH plus 100 μl antagonist e.g. capsazepine). After approximately 1 min, 100 μl agonist (e.g. capsaicin, anadamide or resiniferatoxin) at 5× the desired concentration was added to give final 1× concentration. […]
The mark [4] stands for this setting: 1 μM CPZ against 1 μM capsaicin, holding potential −60 mV.

T2 sequence (Q8NER1 whole entry M315I/T469I, the tested form may be a part): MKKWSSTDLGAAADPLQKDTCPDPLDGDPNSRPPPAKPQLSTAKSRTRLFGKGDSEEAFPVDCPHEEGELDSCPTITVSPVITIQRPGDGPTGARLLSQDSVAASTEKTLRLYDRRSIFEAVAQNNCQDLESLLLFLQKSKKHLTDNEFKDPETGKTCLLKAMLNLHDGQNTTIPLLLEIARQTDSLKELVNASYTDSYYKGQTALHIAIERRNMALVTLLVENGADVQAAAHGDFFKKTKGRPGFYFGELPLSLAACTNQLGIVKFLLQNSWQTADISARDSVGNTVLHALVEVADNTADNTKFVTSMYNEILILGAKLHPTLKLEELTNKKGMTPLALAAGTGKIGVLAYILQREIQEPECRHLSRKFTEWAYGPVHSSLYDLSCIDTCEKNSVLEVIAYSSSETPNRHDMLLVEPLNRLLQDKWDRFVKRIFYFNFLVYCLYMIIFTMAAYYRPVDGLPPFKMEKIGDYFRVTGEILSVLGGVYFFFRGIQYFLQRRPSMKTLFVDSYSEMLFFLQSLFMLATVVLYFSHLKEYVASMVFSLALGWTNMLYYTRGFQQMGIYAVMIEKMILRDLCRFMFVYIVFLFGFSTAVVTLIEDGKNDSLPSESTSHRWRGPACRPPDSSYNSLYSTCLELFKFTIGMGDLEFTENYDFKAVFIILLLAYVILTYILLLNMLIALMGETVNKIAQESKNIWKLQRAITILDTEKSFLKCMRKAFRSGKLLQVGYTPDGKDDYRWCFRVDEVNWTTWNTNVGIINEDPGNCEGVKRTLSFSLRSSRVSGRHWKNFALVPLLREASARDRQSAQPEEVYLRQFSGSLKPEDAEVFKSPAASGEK
T1 sequence (O35433 whole entry): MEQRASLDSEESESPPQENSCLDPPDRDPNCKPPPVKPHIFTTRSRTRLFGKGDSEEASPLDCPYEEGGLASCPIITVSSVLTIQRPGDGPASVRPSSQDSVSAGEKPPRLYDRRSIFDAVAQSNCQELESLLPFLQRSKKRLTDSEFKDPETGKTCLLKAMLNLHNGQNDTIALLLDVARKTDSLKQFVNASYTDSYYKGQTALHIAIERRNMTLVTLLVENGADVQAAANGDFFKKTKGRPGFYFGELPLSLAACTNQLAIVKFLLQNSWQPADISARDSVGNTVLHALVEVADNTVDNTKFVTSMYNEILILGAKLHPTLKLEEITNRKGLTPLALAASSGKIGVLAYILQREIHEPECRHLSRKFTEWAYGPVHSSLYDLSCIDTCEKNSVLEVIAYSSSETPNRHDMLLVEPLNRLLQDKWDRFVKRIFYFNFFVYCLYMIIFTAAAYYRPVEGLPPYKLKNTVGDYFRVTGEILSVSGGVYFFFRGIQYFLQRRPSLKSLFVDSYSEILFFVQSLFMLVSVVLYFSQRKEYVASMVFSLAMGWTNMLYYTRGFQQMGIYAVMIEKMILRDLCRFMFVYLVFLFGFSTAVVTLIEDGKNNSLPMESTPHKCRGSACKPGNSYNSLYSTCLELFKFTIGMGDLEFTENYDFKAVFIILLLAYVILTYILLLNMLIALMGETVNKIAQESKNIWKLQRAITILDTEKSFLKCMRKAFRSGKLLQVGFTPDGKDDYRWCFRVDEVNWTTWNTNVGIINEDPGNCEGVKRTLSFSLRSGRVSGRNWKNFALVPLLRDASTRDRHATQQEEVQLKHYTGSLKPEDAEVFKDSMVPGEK

Consider `Oc1cc2c(cc1O)CN(C(=S)NCCc1ccc(Cl)cc1)CCC2` [CPZ, capsazepine], for which the “antagonism of the capsaicin VR1 response (FLIPR peak heights)” value in test [1] (cells pre-incubated in CPZ 15 minutes at room temperature) is given as “peak heights are reduced”. Moreover, in test [2] (setting [4]), the “blockade of capsaicin-evoked inward current” value is on record as “abolished” and the reversibility of blockade entry is reported as “partially reversible”. Further, the “blockade of capsaicin-evoked current in voltage ramps” value in test [2] (1 μM CPZ against 1 μM capsaicin, voltage ramps −100 to +70 mV) was “completely blocked the current”. In addition, the “recovery after blockade in voltage ramps” value in test [2] (1 μM CPZ, especially inward currents evoked by negative potentials) is “only partial recovery was observed”.

`COc1cc(CNC(=O)CCCC/C=C/C(C)C)ccc1O` [capsaicin]: the “FLIPR trace after agonist addition (fluorescence change)” value in test [1] (HEK293 stably expressing rVR1, monitored 70 seconds after addition) is on record as “Peaks indicate capsaicin-gated calcium influx”. Moreover, the current-voltage relationship entry in test [2] (1 μM capsaicin, voltage ramps −100 to +70 mV) is reported as “substantial outward rectification”. Further, the “reduction of current by the 6th addition (desensitisation, rundown)” value in test [2] (capsaicin 1 μM added at 2 min intervals for about 40 s, 2 mM external calcium, current at +65 mV) was “about 4 fold”. Besides, the “size of capsaicin-evoked current when external calcium replaced” value in test [2] (capsaicin 1 μM, external calcium replaced with 5 mM EGTA) is recorded as “increased dramatically”. Also, the “current evoked by application of capsaicin” value in test [2] (capsaicin 1 μM, membrane held at −60 mV, HEK293T transiently expressing human VR1) is “produces an inward current”. In addition, in test [3], the “calcium influx response after addition of agonist” value was “stimulated to influx calcium”.
